Assay results taken from the supplement of paper PMC10307832.

Assays:
Experiment in all cases: relative viability (nuclei count vs DMSO), 5 days (fraction); higher = more cells survive
NCI-H322M = tested on: NCI-H322M
Method in brief: (§1)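 Relative viability is defined as nuclei in treated wells over nuclei in vehicle wells. Duplicate plates were run and medians reported. Lung cancer cell lines in 1536-well plates were dosed by pin tool one day after seeding, with one drug or with a fixed anchor-drug dose plus five library-drug doses (not always all listed) in √10 steps, and nuclei were counted after 5 days.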

NCI-H460 = tested on: NCI-H460
Method in brief: as §1

NCI-H2087 = tested on: NCI-H2087
Method in brief: as §1

EKVX = tested on: EKVX
Method in brief: as §1

NCI-H2009 = tested on: NCI-H2009
Method in brief: as §1

NCI-H1993 = tested on: NCI-H1993
Method in brief: as §1

SK-MES-1 = tested on: SK-MES-1
Method in brief: as §1

CAL-12T = tested on: CAL-12T
Method in brief: as §1

EPLC-272H = tested on: EPLC-272H
Method in brief: as §1

NCI-H2342 = tested on: NCI-H2342
Method in brief: as §1

H3255 = tested on: H3255
Method in brief: as §1

COR-L 105 = tested on: COR-L 105
Method in brief: as §1

NCI-H1975 = tested on: NCI-H1975
Method in brief: as §1

ABC-1 = tested on: ABC-1
Method in brief: as §1

NCI-H441 = tested on: NCI-H441
Method in brief: as §1

ChaGo-K-1 = tested on: ChaGo-K-1
Method in brief: as §1

HCC-827 = tested on: HCC-827
Method in brief: as §1

NCI-H1792 = tested on: NCI-H1792
Method in brief: as §1

NCI-H2085 = tested on: NCI-H2085
Method in brief: as §1

HCC-366 = tested on: HCC-366
Method in brief: as §1

NCI-H1355 = tested on: NCI-H1355
Method in brief: as §1

NCI-H2228 = tested on: NCI-H2228
Method in brief: as §1

Which results are given for `CCNC(=O)c1noc(-c2cc(C(C)C)c(O)cc2O)c1-c1ccc(CN2CCOCC2)cc1` [Luminespib] + CC(=O)c1c(C)c2cnc(Nc3ccc(N4CCNCC4)cn3)nc2n(C2CCCC2)c1=O [Palbociclib] (partner 0.5 µM)?
relative viability (NCI-H322M; first compound 0.002 µM): 0.406; relative viability (NCI-H322M; first compound 0.006325 µM): 0.471; relative viability (NCI-H322M; first compound 0.02 µM): 0.448; relative viability (NCI-H322M; first compound 0.06325 µM): 0.427; relative viability (NCI-H322M; first compound 0.2 µM): 0.382; relative viability (NCI-H460; first compound 0.002 µM): 0.288; relative viability (NCI-H460; first compound 0.006325 µM): 0.126; relative viability (NCI-H460; first compound 0.02 µM): 0.0359; relative viability (NCI-H460; first compound 0.06325 µM): 0.0096; relative viability (NCI-H460; first compound 0.2 µM): 0.0106; relative viability (NCI-H2087; first compound 0.002 µM): 0.205; relative viability (NCI-H2087; first compound 0.006325 µM): 0.232; relative viability (NCI-H2087; first compound 0.02 µM): 0.185; relative viability (NCI-H2087; first compound 0.06325 µM): 0.11; relative viability (NCI-H2087; first compound 0.2 µM): 0.114; relative viability (EKVX; first compound 0.002 µM): 0.431; relative viability (EKVX; first compound 0.006325 µM): 0.364; relative viability (EKVX; first compound 0.02 µM): 0.184; relative viability (EKVX; first compound 0.06325 µM): 0.342; relative viability (EKVX; first compound 0.2 µM): 0.138; relative viability (NCI-H2009; first compound 0.002 µM): 0.287; relative viability (NCI-H2009; first compound 0.006325 µM): 0.172; relative viability (NCI-H2009; first compound 0.02 µM): 0.113; relative viability (NCI-H2009; first compound 0.06325 µM): 0.0496; relative viability (NCI-H2009; first compound 0.2 µM): 0.0514; relative viability (NCI-H1993; first compound 0.002 µM): 0.714; relative viability (NCI-H1993; first compound 0.006325 µM): 0.611; relative viability (NCI-H1993; first compound 0.02 µM): 0.473; relative viability (NCI-H1993; first compound 0.06325 µM): 0.716; relative viability (NCI-H1993; first compound 0.2 µM): 0.413; relative viability (SK-MES-1; first compound 0.002 µM): 0.296; relative viability (SK-MES-1; first compound 0.006325 µM): 0.335; relative viability (SK-MES-1; first compound 0.02 µM): 0.368; relative viability (SK-MES-1; first compound 0.06325 µM): 0.151; relative viability (SK-MES-1; first compound 0.2 µM): 0.172; relative viability (CAL-12T; first compound 0.002 µM): 0.601; relative viability (CAL-12T; first compound 0.006325 µM): 0.467; relative viability (CAL-12T; first compound 0.02 µM): 0.161; relative viability (CAL-12T; first compound 0.06325 µM): 0.11; relative viability (CAL-12T; first compound 0.2 µM): 0.0956; relative viability (EPLC-272H; first compound 0.002 µM): 0.285; relative viability (EPLC-272H; first compound 0.006325 µM): 0.317; relative viability (EPLC-272H; first compound 0.02 µM): 0.284; relative viability (EPLC-272H; first compound 0.06325 µM): 0.311; relative viability (EPLC-272H; first compound 0.2 µM): 0.0905; relative viability (NCI-H2342; first compound 0.002 µM): 0.527; relative viability (NCI-H2342; first compound 0.006325 µM): 0.527; relative viability (NCI-H2342; first compound 0.02 µM): 0.438; relative viability (NCI-H2342; first compound 0.06325 µM): 0.526; relative viability (NCI-H2342; first compound 0.2 µM): 0.409; relative viability (H3255; first compound 0.002 µM): 0.325; relative viability (H3255; first compound 0.006325 µM): 0.304; relative viability (H3255; first compound 0.02 µM): 0.308; relative viability (H3255; first compound 0.06325 µM): 0.281; relative viability (H3255; first compound 0.2 µM): 0.296; relative viability (COR-L 105; first compound 0.002 µM): 0.412; relative viability (COR-L 105; first compound 0.006325 µM): 0.445; relative viability (COR-L 105; first compound 0.02 µM): 0.366; relative viability (COR-L 105; first compound 0.06325 µM): 0.265; relative viability (COR-L 105; first compound 0.2 µM): 0.289; relative viability (NCI-H1975; first compound 0.002 µM): 0.614; relative viability (NCI-H1975; first compound 0.006325 µM): 0.469; relative viability (NCI-H1975; first compound 0.02 µM): 0.363; relative viability (NCI-H1975; first compound 0.06325 µM): 0.103; relative viability (NCI-H1975; first compound 0.2 µM): 0.122; relative viability (ABC-1; first compound 0.002 µM): 0.925; relative viability (ABC-1; first compound 0.006325 µM): 0.876; relative viability (ABC-1; first compound 0.02 µM): 0.494; relative viability (ABC-1; first compound 0.06325 µM): 0.286; relative viability (ABC-1; first compound 0.2 µM): 0.245; relative viability (NCI-H441; first compound 0.002 µM): 0.243; relative viability (NCI-H441; first compound 0.006325 µM): 0.215; relative viability (NCI-H441; first compound 0.02 µM): 0.143; relative viability (NCI-H441; first compound 0.06325 µM): 0.102; relative viability (NCI-H441; first compound 0.2 µM): 0.1; relative viability (ChaGo-K-1; first compound 0.002 µM): 0.813; relative viability (ChaGo-K-1; first compound 0.006325 µM): 0.888; relative viability (ChaGo-K-1; first compound 0.02 µM): 0.963; relative viability (ChaGo-K-1; first compound 0.06325 µM): 0.925; relative viability (ChaGo-K-1; first compound 0.2 µM): 0.82; relative viability (HCC-827; first compound 0.002 µM): 0.492; relative viability (HCC-827; first compound 0.006325 µM): 0.473; relative viability (HCC-827; first compound 0.02 µM): 0.326; relative viability (HCC-827; first compound 0.06325 µM): 0.178; relative viability (HCC-827; first compound 0.2 µM): 0.148; relative viability (NCI-H1792; first compound 0.002 µM): 0.691; relative viability (NCI-H1792; first compound 0.006325 µM): 0.655; relative viability (NCI-H1792; first compound 0.02 µM): 0.622; relative viability (NCI-H1792; first compound 0.06325 µM): 0.316; relative viability (NCI-H1792; first compound 0.2 µM): 0.278; relative viability (NCI-H2085; first compound 0.002 µM): 0.447; relative viability (NCI-H2085; first compound 0.006325 µM): 0.434; relative viability (NCI-H2085; first compound 0.02 µM): 0.453; relative viability (NCI-H2085; first compound 0.06325 µM): 0.388; relative viability (NCI-H2085; first compound 0.2 µM): 0.263; relative viability (HCC-366; first compound 0.002 µM): 0.363; relative viability (HCC-366; first compound 0.006325 µM): 0.358; relative viability (HCC-366; first compound 0.02 µM): 0.411; relative viability (HCC-366; first compound 0.06325 µM): 0.0279; relative viability (HCC-366; first compound 0.2 µM): 0.0276; relative viability (NCI-H1355; first compound 0.002 µM): 0.415; relative viability (NCI-H1355; first compound 0.006325 µM): 0.383; relative viability (NCI-H1355; first compound 0.02 µM): 0.257; relative viability (NCI-H1355; first compound 0.06325 µM): 0.367; relative viability (NCI-H1355; first compound 0.2 µM): 0.222; relative viability (NCI-H2228; first compound 0.002 µM): 0.752; relative viability (NCI-H2228; first compound 0.006325 µM): 0.616; relative viability (NCI-H2228; first compound 0.02 µM): 0.121; relative viability (NCI-H2228; first compound 0.06325 µM): 0.119; relative viability (NCI-H2228; first compound 0.2 µM): 0.104
